How the values were obtained:
HCT-116 = assay: Antiproliferative activity against human HCT-116 cells assessed as inhibition of cell viability incubated for 48 hrs by CCK8 assay; assay type: functional, cell-based; conditions: HCT-116, 48 h
HeLa = assay: Antiproliferative activity against human HeLa cells assessed as inhibition of cell viability incubated for 48 hrs by CCK8 assay; assay type: functional, cell-based

Row | SMILES | IC50 (HCT-116) [µM] | IC50 (HeLa) [µM]
1 | CCOC(=O)/C=C/N1c2nc(Cl)nc(Cl)c2N2C(c3ccc4ccccc4c3)OC(C(=O)OCC)(C(=O)OCC)C12 (racemic) | > 50 | > 50
2 | CCOC(=O)/C=C/N1c2nc(Cl)nc(Cl)c2N2C(c3cc(OC)c(OC)c(OC)c3)OC(C(=O)OCC)(C(=O)OCC)C12 (racemic) | 14 | > 50
3 | CCOC(=O)/C=C/N1c2nc(Cl)nc(Cl)c2N2C(c3ccccc3)OC(C(=O)OCC)(C(=O)OCC)C12 (racemic) | 13.8 | 12.3
4 | CCOC(=O)/C=C/N1c2nc(Cl)nc(Cl)c2N2C(c3ccccc3)OC(C(=O)OCC)C12 (racemic) | 11.9 | 6.57
5 | CCOC(=O)/C=C/N1c2nc(Cl)nc(Cl)c2N2C(c3cccc(OC)c3)OC(C(=O)OCC)(C(=O)OCC)C12 (racemic) | 20.7 | 45.9
6 | CCOC(=O)/C=C/N1c2nc(Cl)nc(Cl)c2N2C(c3ccc(C(F)(F)F)cc3)OC(C(=O)OCC)(C(=O)OCC)C12 (racemic) | 7.13 | > 50
7 | CCOC(=O)/C=C/N1c2nc(Cl)nc(Cl)c2N2C(c3ccc(C)c(C)c3)OC(C(=O)OCC)(C(=O)OCC)C12 (racemic) | 14.9 | 1.92
8 | CCOC(=O)/C=C/N1c2nc(Cl)nc(Cl)c2N2C(c3cccc4ccccc34)OC(C(=O)OCC)(C(=O)OCC)C12 (racemic) | > 50 | > 50
9 | CCOC(=O)/C=C/N1c2nc(Cl)nc(Cl)c2N2C(c3cccs3)OC(C(=O)OCC)(C(=O)OCC)C12 (racemic) | > 50 | > 50
10 | CCOC(=O)/C=C/N1c2nc(Cl)nc(Cl)c2N2C(c3cccc(Cl)c3)OC(C(=O)OCC)(C(=O)OCC)C12 (racemic) | 7.36 | 16.6
11 | CCOC(=O)/C=C/N1c2nc(Cl)nc(Cl)c2N2C(c3ccc(-c4ccccn4)cc3)OC(C(=O)OCC)(C(=O)OCC)C12 (racemic) | 21.7 | > 50
12 | CCOC(=O)/C=C/N1c2ncnc(OC)c2N2C(c3ccccc3)OC(C(=O)OCC)(C(=O)OCC)C12 (racemic) | > 50 | > 50
13 | CCOC(=O)/C=C/N1c2nc(Cl)nc(Cl)c2N2C(c3ccccc3)OC(CO)(CO)C12 (racemic) | 11.2 | 15.4
14 | CCOC(=O)/C=C/N1c2nc(Cl)nc(Cl)c2N2C(c3ccccc3)OC(COS(=O)(=O)c3ccc(C)cc3)(COS(=O)(=O)c3ccc(C)cc3)C12 (racemic) | > 50 | > 50
15 | CCOC(=O)/C=C/N1c2nc(F)nc(Cl)c2N2C(c3ccccc3)OC(C(=O)OCC)(C(=O)OCC)C12 (racemic) | 18.6 | 18.3

Further compounds by falling IC50 (HCT-116), results first:

Row | IC50 (HCT-116) [µM] | IC50 (HeLa) [µM] | SMILES
16 | 6.93 | 12.6 | CCOC(=O)/C=C/N1c2nc(Cl)nc(Cl)c2N2C(c3ccccc3)OC(C(=O)OC)(C(=O)OC)C12 (racemic)
17 | 5.1 | 6.72 | CCOC(=O)/C=C/N1c2nc(Cl)nc(Cl)c2N2C(c3cccc(F)c3)OC(C(=O)OCC)(C(=O)OCC)C12 (racemic)
18 | 3.56 | 10 | CCOC(=O)/C=C/N1c2nc(Cl)nc(Cl)c2N2C(c3cccc(C(F)(F)F)c3)OC(C(=O)OCC)(C(=O)OCC)C12 (racemic)
19 | 3.41 | 3.15 | CCOC(=O)/C=C/N1c2nc(Cl)nc(Cl)c2N2C(c3ccccc3Br)OC(C(=O)OCC)(C(=O)OCC)C12 (racemic)
20 | 3.29 | 4.95 | CCOC(=O)/C=C/N1c2nc(Cl)nc(Cl)c2N2C(c3ccccc3C(F)(F)F)OC(C(=O)OCC)(C(=O)OCC)C12 (racemic)
21 | 2.7 | 3.55 | CCOC(=O)/C=C/N1c2nc(Cl)nc(Cl)c2N2C(c3ccccc3Cl)OC(C(=O)OCC)(C(=O)OCC)C12 (racemic)
22 | 2.18 | 2.36 | C=C(C(=O)OC)N1c2nc(Cl)nc(Cl)c2N2C(c3ccccc3)OC(C(=O)OCC)(C(=O)OCC)C12 (racemic)
23 | 0.24 | 0.74 | C=C(C(=O)OC)N1c2nc(Cl)nc(Cl)c2N2[C@@H](c3ccccc3F)OC(C(=O)OCC)(C(=O)OCC)[C@H]12

Source: ChEMBL document CHEMBL6103618, “Discovery of Novel Oxazolo[4,3-f]purine Derivatives as Antitumor Agents through PPIA Interaction” (J Med Chem, 2025)
